# Calls of active or inactive are those of the source. The rule behind the calls is not given here.
# What was measured:
# HOP-62 = assay: Growth inhibition of human HOP62 cells after 48 hrs by sulforhodamine B assay; type: functional; conditions: HOP-62, 48 h
# NCI-H322M = assay: Growth inhibition of human […] cells after 48 hrs by sulforhodamine B assay; type: functional
# HCT-15 = assay: Growth inhibition of human HCT15 cells after 48 hrs by sulforhodamine B assay; type: functional; conditions: HCT-15, 48 h
# HCC 2998 = assay: Growth inhibition of human HCC2998 cells after 48 hrs by sulforhodamine B assay; type: functional; conditions: HCC 2998, 48 h
# SF-539 = assay: Growth inhibition of human SF539 cells after 48 hrs by sulforhodamine B assay; type: functional; conditions: SF-539, 48 h; for CC50: read-out: LC50 (the source's name)
# Malme-3M = assay: Growth inhibition of human MALME-3M cells after 48 hrs by sulforhodamine B assay; type: functional
# SK-MEL-2 = assay: Growth inhibition of human SK-MEL-2 cells after 48 hrs by sulforhodamine B assay; type: functional; conditions: SK-MEL-2, 48 h
# OVCAR-8 = assay: Growth inhibition of human OVCAR8 cells after 48 hrs by sulforhodamine B assay; type: functional; conditions: OVCAR-8, 48 h
# 786-0 = assay: Growth inhibition of human 786-0 cells after 48 hrs by sulforhodamine B assay; type: functional; conditions: 786-0, 48 h
# DU-145 = assay: Growth inhibition of human DU145 cells after 48 hrs by sulforhodamine B assay; type: functional; conditions: DU-145, 48 h
# MOLT-4 [1] = assay: Growth inhibition of human MOLT4 cells at 1 uM after 48 hrs by sulforhodamine B assay; type: functional, cell-based
# EKVX = assay: Growth inhibition of human EKVX cells at 1 uM after 48 hrs by sulforhodamine B assay; type: functional, cell-based
# CCRF-CEM = assay: Growth inhibition of human CCRF-CEM cells after 48 hrs by sulforhodamine B assay; type: functional
# HL-60 = assay: Growth inhibition of human HL-60(TB) cells after 48 hrs by sulforhodamine B assay; type: functional; conditions: HL-60, 48 h
# K562 = assay: Growth inhibition of human K562 cells after 48 hrs by sulforhodamine B assay; type: functional; conditions: K562, 48 h
# MOLT-4 [2] = assay: Growth inhibition of human MOLT4 cells after 48 hrs by sulforhodamine B assay; type: functional; conditions: MOLT-4, 48 h
# A549 = assay: Growth inhibition of human A549 cells after 48 hrs by sulforhodamine B assay; type: functional; conditions: A549, 48 h
# SF-268 = assay: Growth inhibition of human SF268 cells after 48 hrs by sulforhodamine B assay; type: functional; conditions: SF-268, 48 h
# [3] = Growth inhibition of human SF530 cells after 48 hrs by sulforhodamine B assay; type: functional; conditions: SF530, 48 h
# SNB-75 = assay: Growth inhibition of human SNB75 cells after 48 hrs by sulforhodamine B assay; type: functional; conditions: SNB-75, 48 h
# M14 = assay: Growth inhibition of human M14 cells after 48 hrs by sulforhodamine B assay; type: functional; conditions: M14, 48 h
# SK-MEL-28 = assay: Growth inhibition of human SK-MEL-28 cells after 48 hrs by sulforhodamine B assay; type: functional; conditions: SK-MEL-28, 48 h
# Hs-578T = assay: Growth inhibition of human Hs 578T cells after 48 hrs by sulforhodamine B assay; type: functional
# [4] = read-out: LC50 (the source's name)
smiles,measurement,setting,value
Nc1nc(N)c2c(n1)NC(c1ccc(F)cc1)C1CCc3ccccc3C1=N2 (stereo not given),GI50,HOP-62,6 µM
same,LC50 (concentration killing 50% of cells),HOP-62,51.6 µM
same,GI50,NCI-H322M,9.63 µM
same,CC50,NCI-H322M; [4],48 µM
same,GI50,HCT-15,3.99 µM
same,LC50,HCT-15,43 µM
same,GI50,HCC 2998,2.44 µM
same,LC50 (concentration killing 50% of cells),HCC 2998,24.3 µM
same,GI50,SF-539,1.71 µM
same,CC50,SF-539,32 µM
same,GI50,Malme-3M,2.52 µM
same,LC50,Malme-3M,68.6 µM
same,GI50,SK-MEL-2,5.73 µM
same,LC50,SK-MEL-2,50.2 µM
same,GI50,OVCAR-8,8.07 µM
same,LC50 (concentration killing 50% of cells),OVCAR-8,80.7 µM
same,GI50,786-0,6.9 µM
same,LC50 (50% lethal concentration),786-0,47.8 µM
same,GI50,DU-145,7.45 µM
same,LC50 (50% lethal concentration),DU-145,44.5 µM
same,growth inhibition (GI),MOLT-4 [1],inactive
same,growth inhibition (GI),EKVX,inactive
Nc1nc(N)c2c(n1)NC(c1ccc(Cl)cc1)C1CCc3ccccc3C1=N2 (stereo not given),GI50,HCT-15,4.16 µM
same,LC50,HCT-15,53.9 µM
same,GI50,SF-539,6.17 µM
same,CC50,SF-539,44.3 µM
same,GI50,Malme-3M,8.48 µM
same,LC50,Malme-3M,54 µM
same,growth inhibition (GI),MOLT-4 [1],inactive
same,growth inhibition (GI),EKVX,inactive
Nc1nc(N)c2c(n1)NC(c1ccccc1)C1CCc3ccccc3C1=N2 (stereo not given),GI50,CCRF-CEM,4.47 µM
same,CC50,CCRF-CEM; [4],> 100 µM
same,GI50,HL-60,2.37 µM
same,CC50,HL-60; [4],> 100 µM
same,GI50,K562,3.42 µM
same,CC50,K562; [4],> 100 µM
same,GI50,MOLT-4 [2],2.7 µM
same,CC50,MOLT-4 [2]; [4],> 100 µM
same,GI50,HOP-62,7.87 µM
same,LC50 (concentration killing 50% of cells),HOP-62,49.7 µM
same,GI50,A549,7.11 µM
same,CC50,A549; [4],82.2 µM
same,GI50,HCT-15,4.06 µM
same,LC50,HCT-15,48.8 µM
same,GI50,HCC 2998,3.82 µM
same,LC50 (concentration killing 50% of cells),HCC 2998,41.2 µM
same,GI50,SF-268,6.96 µM
same,CC50,SF-268; [4],45.7 µM
same,GI50,[3],5.81 µM
same,CC50,[3]; [4],43.7 µM
same,GI50,SNB-75,7.95 µM
same,CC50,SNB-75; [4],45.6 µM
same,GI50,Malme-3M,2.13 µM
same,LC50,Malme-3M,82.5 µM
same,GI50,SK-MEL-2,3.48 µM
same,LC50,SK-MEL-2,43.6 µM
same,GI50,M14,4.88 µM
same,CC50,M14; [4],44.2 µM
same,GI50,SK-MEL-28,7.72 µM
same,CC50,SK-MEL-28; [4],45.1 µM
same,GI50,OVCAR-8,4.71 µM
same,LC50 (concentration killing 50% of cells),OVCAR-8,> 100 µM
same,GI50,786-0,5.99 µM
same,LC50 (50% lethal concentration),786-0,45.7 µM
same,GI50,DU-145,4.38 µM
same,LC50 (50% lethal concentration),DU-145,42.1 µM
same,GI50,Hs-578T,5.85 µM
same,CC50,Hs-578T; [4],> 100 µM
same,growth inhibition (GI),MOLT-4 [1],inactive
same,growth inhibition (GI),EKVX,inactive

# — ChEMBL document CHEMBL1177848, “Synthesis of novel 6,6a,7,8-tetrahydro-5H-naphtho[1,2-e]pyrimido[4,5-b][1,4]diazepines under microwave irradiation as potential anti-tumor agents” (2010)
